Experiments:
[1] = tested on: human orbital fibroblasts; assay: Myofibroblast formation assay (cell images) of Chembridge hits in human orbital fibroblasts; assay type: cell-based
Protocol: FIG. 22 is a panel of cell images showing efficacy of selected Chembridge hits in myofibroblast formation assays using human orbital fibroblasts. […] Key: SNC: salinomycin control; A1: 5255687; A2:5130037; A4:9040737; B3:9057423; C2:9018748; C3:9048694; C4:9022265.
(§1) Selected Chembridge hits were tested in myofibroblast formation assays using human orbital fibroblasts (FIG. 22) and human lung fibroblasts (FIG. 23).

human lung fibroblasts = assay: Myofibroblast formation assay (cell images) of Chembridge hits in human lung fibroblasts; assay type: cell-based
Protocol: FIG. 23 is a panel of cell images showing efficacy of selected Chembridge hits in myofibroblast formation assays using human lung fibroblasts. […] Key: SNC: salinomycin control; A1: 5255687; A2:5130037; A4:9040737; B3:9057423; C2:9018748; C3:9048694; C4:9022265.
as §1

TGFβ signaling = assay: Chembridge collection screen with HEK293-Thy1 SBE-Luc cell line (normalized luciferase activity); assay type: cell-based, human; settings: Chembridge collection re-screen
Description: Using the recombinant HEK293-Thy1 SBE-Luc cell line described in the preceding Examples, the Chembridge collection of 20,000 small molecules was screened to identify other small molecules that inhibit TGFβ activity and, thus, may be novel anti-scarring compounds
100 top candidates from the initial screen were re-screened. Numbers indicate the Chembride molecule ID number. The second screen controls for toxicity and non-specific effects by using a constitutive luciferase to normalize results. This assay can be further used in a high throughput fashion to analyze newly derived compounds and monitor structure activity relationships (SAR) to discover new molecules that can serve as the basis for anti-scarring therapeutics.
The two-dimensional structures of the molecules are depicted in the left hand column. Chembridge collection IDs are listed in the second column and the additional columns denote the following (in order): the molecular name, the percent inhibition of the molecule using the screen (100% being a complete inhibition) (% Inhib.), and the internal key (key) for further identification in FIGS. 22 and 23.

[2] = tested on: TGFβ-induced myofibroblast formation in human fibroblasts; assay: Western blot of myofibroblast markers αSMA and calponin in TGFβ-treated human (TED orbital) fibroblasts; assay type: cell-based; settings: 250 nM, TGFβ, 72 hours
Protocol: TED fibroblasts were treated with TGFβ (1 ng/ml) in the presence or absence of 10-250 nM salinomycin for 72 hours to allow formation of myofibroblasts. After 72 hours, cells were harvested and analyzed by Western blot. As expected, the fibroblasts robustly responded to TGFβ, expressing high levels of αSMA and calponin (FIG. 2A). […] At 50 nM salinomycin, expression of αSMA was reduced by 4-fold over TGFβ treatment alone. Furthermore, at 250 nM salinomycin, αSMA expression was reduced by approximately 16-fold, to levels at or below untreated fibroblasts. […] Another key role of myofibroblasts in scar formation is the production of collagen. Whether salinomycin could block myofibroblast collagen production was assessed. Cells were treated with TGFβ and salinomycin as above and after 72 hours, culture medium was collected and analyzed for collagen levels using a specific collagen I antibody and slot blot analysis.
To test these four compounds, human fibroblasts were treated with TGFβ in the absence or presence of 250 nM of either salinomycin, narasin, clioquinol or monensin for 72 hours. After treatment, cell lysates were harvested and analyzed for the presence of the myofibroblast markers, αSMA and calponin (FIG. 3B).

Row | SMILES | TGFβ induced myofibroblast formation (cell images) [1] | cell death (cell images) [1] | TGFβ induced myofibroblast formation (cell images) (human lung fibroblasts) | cell death (cell images) (human lung fibroblasts) | % Inhib. (percent inhibition of the molecule using the screen, 100% being a complete inhibition) (TGFβ signaling) [%] | expression of αSMA and calponin [2]
1 | CNC(=O)c1ccccc1OCCOc1ccccc1 [compound 9057423, N-methyl-2-(2-phenoxyethoxy)benzamide] | preventing TGFβ induced myofibroblast formation | not causing cell death | preventing TGFβ induced myofibroblast formation | not causing cell death | 51 | –
2 | Cc1ccc(C(C)NC(=O)c2c(Cl)cnn2C)cc1C (stereo not shown) [compound 9043411, 4-chloro-N-[1-(3,4-dimethylphenyl)ethyl]-1-methyl-1H-pyrazole-5-carboxamide] | – | – | – | – | 37 | –
3 | CCOC(=O)c1c(N)sc2c1CCC/C2=N/O [compound 5130037, ethyl 2-amino-7-(hydroxyimino)-4,5,6,7-tetrahydro-1-benzothiophene-3-carboxylate] | preventing TGFβ induced myofibroblast formation | not causing cell death | preventing TGFβ induced myofibroblast formation | not causing cell death | 68 | –
4 | Cc1nn2c(=O)cc(-c3ccc(Cl)cc3)[nH]c2c1-c1ccccc1 [compound 9080334, 5-(4-chlorophenyl)-2-methyl-3-phenylpyrazolo[1,5-a]pyrimidin-7(4H)-one] | – | – | – | – | 41 | –
5 | CC(C)(C)NS(=O)(=O)c1ccc(NC(=O)c2ccncc2)cc1 [compound 9038066, N-{4-[(tert-butylamino)sulfonyl]phenyl}isonicotinamide] | – | – | – | – | 54 | –
6 | COc1ccccc1NC(=O)C#Cc1ccccc1 [compound 9048694, N-(2-methoxyphenyl)-3-phenyl-2-propynamide] | preventing TGFβ induced myofibroblast formation | not causing cell death | preventing TGFβ induced myofibroblast formation | not causing cell death | 92 | –
7 | Cc1ccc(NC2=Nn3c(Cc4ccccc4)nnc3SC2)cc1 [compound 9016022, 3-benzyl-N-(4-methylphenyl)-7H-[1,2,4]triazolo[3,4-b][1,3,4]thiadiazin-6-amine] | – | – | – | – | 46 | –
8 | Cc1cc(Cl)c(Cl)cc1S(=O)(=O)NCc1ccncc1 [compound 9018748, 4,5-dichloro-2-methyl-N-(4-pyridinylmethyl)benzenesulfonamide] | preventing TGFβ induced myofibroblast formation | not causing cell death | preventing TGFβ induced myofibroblast formation | not causing cell death | 95 | –
9 | O=C(Nc1nc2ccccc2[nH]1)c1ccccc1Br [compound 7263741, N-1H-benzimidazol-2-yl-2-bromobenzamide] | – | – | – | – | 46 | –
10 | Cc1cc(C)c(C(=O)/C=C/c2ccccc2Cl)c(=O)[nH]1 [compound 5255687, 3-[3-(2-chlorophenyl)acryloyl]-4,6-dimethyl-2(1H)-pyridinone] | preventing TGFβ induced myofibroblast formation | not causing cell death | preventing TGFβ induced myofibroblast formation | not causing cell death | 70 | –
11 | Cc1nn2c(=O)cc(-c3ccccc3)[nH]c2c1-c1ccc(F)cc1 [compound 9040737, 3-(4-fluorophenyl)-2-methyl-5-phenylpyrazolo[1,5-a]pyrimidin-7(4H)-one] | preventing TGFβ induced myofibroblast formation | not causing cell death | preventing TGFβ induced myofibroblast formation | not causing cell death | 63 | –
12 | CCN(CC)C(=O)c1ccc(Cl)c(N)c1 [compound 9116592, 3-amino-4-chloro-N,N-diethylbenzamide] | – | – | – | – | 92 | –
13 | OCc1ccc(Sc2ccc(Cl)cc2)o1 [compound 7586770, {5-[(4-chlorophenyl)thio]-2-furyl}methanol] | – | – | – | – | 80 | –
14 | Oc1c(I)cc(Cl)c2cccnc12 [clioquinol] | – | – | – | – | – | did not inhibit
15 | CC(Nc1ncnc2c1oc1ccccc12)c1ccccc1.Cl (stereo not shown) [compound 9104696, N-(1-phenylethyl)[1]benzofuro[3,2-d]pyrimidin-4-amine hydrochloride] | – | – | – | – | 75 | –
16 | Cc1cc(S(=O)(=O)NCc2ccncc2)ccc1F [compound 9021391, 4-fluoro-3-methyl-N-(4-pyridinylmethyl)benzenesulfonamide] | – | – | – | – | 66 | –
17 | CC1=Nc2ccccc2NC2=C1C(=O)CC(c1ccco1)C2 (stereo not shown) [compound 9025733, 3-(2-furyl)-11-methyl-2,3,4,5-tetrahydro-1H-dibenzo[b,e][1,4]diazepin-1-one] | – | – | – | – | 84 | –
18 | C=CCOc1ccc(NC(=O)c2ccc(CN3CCOCC3)cc2)cc1 [compound 7991998, N-[4-(allyloxy)phenyl]-4-(4-morpholinomethyl)benzamide] | – | – | – | – | 60 | –
19 | O=S(=O)(NCc1ccncc1)c1cccc(F)c1 [compound 9019912, 3-fluoro-N-(4-pyridinylmethyl)benzenesulfonamide] | – | – | – | – | 58 | –
20 | CCOc1ccc(S(=O)(=O)NCc2ccncc2)c(C)c1C [compound 9022265, 4-ethoxy-2,3-dimethyl-N-(4-pyridinylmethyl)benzenesulfonamide] | preventing TGFβ induced myofibroblast formation | not causing cell death | preventing TGFβ induced myofibroblast formation | not causing cell death | 84 | –
21 | CC[C@@]1([C@@H]2O[C@@H]([C@H]3O[C@@](O)(CO)[C@H](C)C[C@@H]3C)C[C@@H]2C)CC[C@H]([C@]2(C)CC[C@]3(C[C@H](O)[C@@H](C)[C@@H]([C@@H](C)[C@@H](OC)[C@H](C)C(=O)O)O3)O2)O1 [monensin] | – | – | – | – | – | inhibited expression of αSMA and calponin

From patent publication US10548911B2, “Small molecule anti-scarring agents” (UNIVERSITY OF ROCHESTER, priority 2014, dated 2020)
